# In patent US20230072421A1, “TARGETED RADIOPHARMACEUTICALS FOR THE DIAGNOSIS AND TREATMENT OF PROSTATE CANCER” (Bayer AS, priority 2019, published 2023):
# Columns and labels:
# C4-2 cells = assay: Cell proliferation assay (CellTiter-Glo, 5-day exposure), C4-2; format: cell-based; settings: C4-2, 1000 cells/well, Th-227 labelled at 375 kBq/nmol, mean of 1 to 6 experiments
# Description: (§1) Inhibition of cell proliferation of Thorium-227 labeled PMSA SMOL ligands was tested different prostate cancer cell lines, namely 22Rv1, VCaP, C4-2 (all from ATCC, Manassas, Va., USA) and LNCaP (DMSZ, Braunschweig). Cells were seeded using the following conditions in 384 well plates (Corning) in 30 μl of growth media at 4000 cells/well for VCaP cells and 1000 cells/well for 22Rv1, C4-2 and LNCaP cells.
# (§2) Cells were cultivated an incubator at 37° C. and 5% C02 over night. […] In sister plates cell viability at treatment start (d=0) was determined using CellTiter-Glo® assay (CTG, Promega, Madison, Wis., USA), by adding 30 μl per well CTG solution, incubation for 10 min and reading of Luminescence in a PheraStarFSX instrument (BMG Labtech). After a 5-day exposure in the presenced of test compounds, cell viability of treated or untreated control cells was determined again using CellTiter-Glo® assay (Promega, Madison, Wis., USA). […] The DRC software is a Biobook Spreadsheet that was developed by Bayer AG and Bayer Business Services on the IDBS E-Workbook Suite platform (IDBS: ID Business Solutions Ltd., Guildford, UK).
# VCaP cells = assay: Cell proliferation assay (CellTiter-Glo, 5-day exposure), VCaP; format: cell-based; settings: 4000 cells/well, Th-227 labelled at 375 kBq/nmol, mean of 1 to 6 experiments
# Description: as §1, §2
# 22Rv1 cells = assay: Cell proliferation assay (CellTiter-Glo, 5-day exposure), 22Rv1; format: cell-based; settings: 22Rv1, 1000 cells/well, Th-227 labelled at 375 kBq/nmol, mean of 1 to 6 experiments
# Description: as §1, §2
# [1] = tested on: LNCaP human prostate cancer cells; assay: LNCaP xenograft efficacy study (T/C tumor area); format: in vivo, SCID mice; settings: Example IV; day 36 after start of therapy; once 1 MBq/kg
# Description: SCID mice were randomly assigned to experimental groups, ten animals per group (efficacy) or n=3-5 per time point of biodistribution study. At the initiation of the study, a testosterone pellet was subcutaneously transplanted, the animals were shaved, tattooed and each cage was labeled with the cage number, study number and number of animals per cage.
# LNCaP human prostate cancer cells were cultured as described according to the supplier's protocols. Cells were harvested for transplantation in a subconfluent (70%) state. Animals were injected with 5×10^6 LNCaP cells suspended in 100% Matrigel subcutaneously into the flank of the mice.
# Efficacy study: When tumors reached a predetermined size in mice of 35-50 mm^2 animals were randomized into treatment and control groups (n=10 animals/group) and treatment with the defined radioactive dose was started. The i.v. application volume was 100 μl/mice.
# Tumor response was assessed by determination of the tumor area (product of the longest diameter and its perpendicular) using a caliper. The animal body weight was monitored as a measure for treatment-related toxicity. Measurement of tumor area and body weight was performed two to three times weekly.
# Animals were sacrificed when showing signs of toxicity (>20% body weight loss) or when tumors reached a size of approximately 200 mm^2.
# Tumor growth inhibition is presented as T/C ratio (Treatment/Control) calculated with tumor areas when the vehicle control group had to be closed.
Molecule,Proliferation assay on cancer cell lines by TTCs Default Pivot #3 IC50 [kBq/mL] C4-2 1000cells 375kBq/nmol (mean) (C4-2 cells) [kBq/mL],Proliferation assay on cancer cell lines by TTCs Default Pivot #3 IC50 [kBq/mL] VCap 4000cells 375kBq/nmol (mean) (VCaP cells) [kBq/mL],Proliferation assay on cancer cell lines by TTCs Default Pivot #3 IC50 [kBq/mL] 22Rv1 1000cells 375kBq/nmol (mean) (22Rv1 cells) [kBq/mL],T/Carea [1]
Cc1cc(C(=O)NCCN(CCCN(CCNC(=O)c2cc(C)n(CC(=O)O)c(=O)c2[O-])CCNC(=O)c2cc(C)n(CC(=O)NCC3CCC(C(=O)NC(Cc4cnc5ccccc5c4)C(=O)NCCCCC(NC(=O)NC(CCC(=O)O)C(=O)O)C(=O)O)CC3)c(=O)c2[O-])CCNC(=O)c2cc(C)n(CC(=O)O)c(=O)c2[O-])c([O-])c(=O)n1CC(=O)O.[227Th+4] (stereo not shown) [Example 22-C monomer-227Th],0.43,2.01,0.72,–
"[^227Th]Thorium-{N^6-[3-(quinolin-2-yl)-N-{(1r,4S)-4-[(2-{4,7,10-tris[(carboxy-kappaO)methyl]-1,4,7,10-tetraazacyclododecan-1-yl-kappa^4N^1,N^4,N^7,N^10}acetamido)methyl]cyclohexane-1-carbonyl}-L-alanyl]-N^2-{[(1S)-1,3-dicarboxypropyl]carbamoyl}-L-lysinate} [Example 17-B-227Th]",0.15,0.73,0.8,–
"O=C([O-])CN1CCN(CC(=O)[O-])CCN(CC(=O)NCc2ccc(C(=O)N[C@@H](Cc3ccc4ccccc4c3)C(=O)NCCCC[C@H](NC(=O)N[C@@H](CCC(=O)O)C(=O)O)C(=O)O)cc2)CCN(CC(=O)[O-])CC1.[227Th+4] [Example 24-B-227Th, [^227Th]Thorium (3S,10S,14S)-3-[(naphthalen-2-yl)methyl]-1,4,12-trioxo-1-{4-[(2-{4,7,10-tris[(carboxy-kappaO)methyl]-1,4,7,10-tetraazacyclododecan-1-yl-kappa^4N^1,N^4,N^7,N^10}acetamido)methyl]phenyl}-2,5,11,13-tetraazahexadecane-10,14,16-tricarboxylate]",0.12,0.68,0.56,–
"O=C([O-])CN1CCN(CC(=O)[O-])CCN(CC(=O)Nc2ccc(-c3ccn(CC(=O)N[C@@H](Cc4ccc5ccccc5c4)C(=O)NCCCC[C@H](NC(=O)N[C@@H](CCC(=O)O)C(=O)O)C(=O)O)n3)cc2)CCN(CC(=O)[O-])CC1.[227Th+4] [Example 28-B-227Th, [^227Th]Thorium (4S,11S,15S)-4-[(naphthalen-2-yl)methyl]-2,5,13-trioxo-1-{3-[4-(2-{4,7,10-tris[(carboxy-kappaO)methyl]-1,4,7,10-tetraazacyclododecan-1-yl-kappa^4N^1,N^4,N^7,N^10}acetamido)phenyl]-1H-pyrazol-1-yl}-3,6,12,14-tetraazaheptadecane-11,15,17-tricarboxylate]",2.22,4.77,1.22,–
CNc1cc(CC(NC(=O)C2CCC(CNC(=O)Cn3c(C)cc(C(=O)NCCN(CCCN(CCNC(=O)c4cc(C)n(CC(=O)O)c(=O)c4[O-])CCNC(=O)c4cc(C)n(CC(=O)NCC5CCC(C(=O)NC(Cc6cc(NC)c7ccccc7c6)C(=O)NCCCCC(NC(=O)NC(CCC(=O)O)C(=O)O)C(=O)O)CC5)c(=O)c4[O-])CCNC(=O)c4cc(C)n(CC(=O)O)c(=O)c4[O-])c([O-])c3=O)CC2)C(=O)NCCCCC(NC(=O)NC(CCC(=O)O)C(=O)O)C(=O)O)cc2ccccc12.[227Th+4] (stereo not shown) [37-C dimer-227Th],0.48,1.53,1.06,–
Cc1cc(C(=O)NCCN(CCCN(CCNC(=O)c2cc(C)n(CC(=O)NCC3CCC(C(=O)NC(Cc4cnc5ccccc5c4)C(=O)NCCCCC(NC(=O)NC(CCC(=O)O)C(=O)O)C(=O)O)CC3)c(=O)c2[O-])CCNC(=O)c2cc(C)n(CC(=O)NCC3CCC(C(=O)NC(Cc4cnc5ccccc5c4)C(=O)NCCCCC(NC(=O)NC(CCC(=O)O)C(=O)O)C(=O)O)CC3)c(=O)c2[O-])CCNC(=O)c2cc(C)n(CC(=O)NCC3CCC(C(=O)NC(Cc4cnc5ccccc5c4)C(=O)NCCCCC(NC(=O)NC(CCC(=O)O)C(=O)O)C(=O)O)CC3)c(=O)c2[O-])c([O-])c(=O)n1CC(=O)O.[227Th+4] (stereo not shown) [Example 22-C trimer-227Th],1.82,2.62,0.84,0.64
"O=C([O-])CN1CCN(CC(=O)[O-])CCN(CC(=O)NCc2ccc(C(=O)N[C@@H](Cc3ccc4ccccc4c3)C(=O)NCCCC[C@H](NC(=O)N[C@@H](CCC(=O)O)C(=O)O)C(=O)O)cn2)CCN(CC(=O)[O-])CC1.[227Th+4] [Example 26-B-227Th, [^227Th]Thorium (3S,10S,14S)-3-[(naphthalen-2-yl)methyl]-1,4,12-trioxo-1-{6-[(2-{4,7,10-tris[(carboxy-kappaO)methyl]-1,4,7,10-tetraazacyclododecan-1-yl-kappa^4N^1,N^4,N^7,N^10}acetamido)methyl]pyridin-3-yl}-2,5,11,13-tetraazahexadecane-10,14,16-tricarboxylate]",0.12,1.15,0.87,–
"O=C([O-])CN1CCN(CC(=O)[O-])CCN(CC(=O)NCc2cccc(C(=O)N[C@@H](Cc3ccc4ccccc4c3)C(=O)NCCCC[C@H](NC(=O)N[C@@H](CCC(=O)O)C(=O)O)C(=O)O)c2)CCN(CC(=O)[O-])CC1.[227Th+4] [Example 27-B-227Th, [^227Th]Thorium (3S,10S,14S)-3-[(naphthalen-2-yl)methyl]-1,4,12-trioxo-1-{3-[(2-{4,7,10-tris[(carboxy-kappaO)methyl]-1,4,7,10-tetraazacyclododecan-1-yl-kappa^4N^1,N^4,N^7,N^10}acetamido)methyl]phenyl}-2,5,11,13-tetraazahexadecane-10,14,16-tricarboxylate]",0.08,0.73,0.65,–
